The results in this text go back to patent US8187884B2, “Method of enhancing homologous recombination of somatic cells and method of constructing specific antibody” (Riken, priority 2002, dated 2012).

Assay type in all cases: cell-based, chicken
One experiment relates to DT40 cells. The experiment is described as follows: Sequence analysis of antibody light chain gene variable region (somatic homologous recombination). The procedure:
DT40 cells were incubated at 39.5 degrees C. in a CO2 constant temperature oven in 5% CO2. IMDM medium (Invitrogen) was utilized as the medium, with 10% FBS, 1% chicken serum, 100 units/ml penicillin, 100 μg/ml streptomycin, and 55 μM 2-mercaptoethanol added. Additionally, for trichostatin A (Wako Pure Chemical Industries), this was dissolved to 5 mg/ml in methanol for stock, and this was used by diluting in an appropriate medium until the final concentration was 1.25 ng/ml.
(§1) At this time, a medium with 1.25 ng/ml trichostatin A added, and a medium with this not added, were prepared. This was incubated until single colonies appeared, and 5 clones (For No TSA, 6 clones) were transferred to a 6 well plate with 2 ml of fresh medium inside. At this time, incubation was continued by maintaining the original TSA concentration, and maintaining the cell concentration at 10^5-10^6 cells/ml.
With the abovementioned method, live cells of DT40 that were incubated for 3 weeks were recovered by fluorescence-activated cell sorter. With an EPICS ELITE ESP, 100 000 live cells were collected in a 1.5 ml tube. […]
PCR (Perkin Elmer 9600) was utilized for the amplification of the antibody light chain gene variable region. […] Plasmids were extracted, and the sequence was analyzed by an ABI PRI SM 377 DNA Sequencer (Perkin Elmer).

Experiment [1] relates to VJ region of antibody light chain gene in DT40 cell line (3H12). As to the kind of experiment: MNase sensitivity (indirect end labeling, Southern blot) of antibody light chain gene chromatin after TSA treatment. The following applies: 3H12 cells incubated 8 hours with TSA 0.625, 1.25, 2.5 ng/ml; MNase 0.04-1 U. Here is the method: Whether an alteration of the chromatin structure of the antibody light chain gene has actually been produced by TSA was analyzed using indirect end labeling with micrococcal nuclease (MNase) sensitivity as an indicator. Among chicken antibody alleles, one is VJ rearranged and the other one is not rearranged, but it is known that actually functional in antibody production is VJ rearranged one. However, since both sequences are almost identical, it is difficult to analyze VJ rearranged allele of wild type DT40 cells by simple application of indirect end labeling method. In order to solve this problem, on the side for which VJ recombination has not occurred, a mutant of which sequences in the vicinity of the region to be used as a Southern hybridization probe is deleted is generated, and an analysis of MNase sensitivity using this mutant was performed. […]
The nuclear pellet was resuspended in 10 ml RSB (10 mM Tris-HCl (pH7.5), 10 mM NaCl, 1.5 mM MgCl2, 0.5 mM DTI. 1 mM PMSF). […] The DNA concentration of this nuclear suspension was measured by Hoechst 33258 binding, and suspension corresponding to 100 μg was made into […] with RSB. […]

Another experiment concerns IgM(-) DT40 cells. As to the kind of experiment: IgM expression by FACS (appearance frequency of IgM(+) cells). Particulars: 1.25 ng/ml trichostatin A, measured every other week by FACS. Here is the method: as §1
Culture fluid containing approximately 10^6 IgM(−) cells on which trichostatin A treatment was done by the method described in Embodiment 2 was put in 1.5 ml tubes, said cells were recovered by centrifuging (1000 g, 5 minutes), and suspended in 200 μl of staining buffer (PBS, 0.3% BSA). The cells were recovered by centrifuging again, then suspended in 200 μl of FITC-labeled anti chicken IgM antibody (BETHYL) diluted to 1/250 fold with a staining buffer, and reacted for 1 hour on ice. The cells were recovered by centrifuging, then the cells were washed by suspending them again in 200 μl of staining buffer, and centrifuging this. After repeating this washing step one more time, the cells were suspended in 100 μl of staining buffer containing 5 μg/ml of propidium iodide (Nakarai). The fraction of cells expressing IgM was calculated by measuring 10 000 cells with an EPICS ELITE ESP (Beckman Coulter). At this time, cells stained by propidium iodide were gated out as dead cells.
For orientation: In flow cytometry, cells or beads pass a laser one at a time.

On to `CC(/C=C/C(=O)NO)=C\[C@@H](C)C(=O)c1ccc(N(C)C)cc1` [trichostatin A], for which the “diversity of antibody light chain genes” value with DT40 cells (DT40 cells cultured 3 weeks with 1.25 ng/ml trichostatin A vs absence) is reported as “rose markedly”. In the experiment on DT40 cells (DT40 cells cultured 3 weeks with 1.25 ng/ml trichostatin A, 42 samples), the “number of sequence types of antibody light chain gene variable region among 42 samples” value is listed as 16 types. Also, in experiment [1], the “accessibility of MNase to the VJ regions” value is given as “increased” and the “chromatin structure of the VJ regions” value is given as “relaxed”. In addition, in the experiment with IgM(-) DT40 cells, the “fraction of cells expressing IgM (IgM(+) cells)” value is reported as “increased time dependently”.
